Key:
[1] = tested on: apolipoprotein E-deficient mice; test: Total plasma cholesterol after 14 days of daily oral administration, high-fat feed; assay type: in vivo; settings: for total plasma cholesterol at day 14 (% of day 0): day 0 taken as 100%, control 212.2%; for suppression of the increase in total plasma cholesterol compared with pyripyropene A: oral administration, apolipoprotein E-deficient mice
Description: Ten-week old apolipoprotein E-deficient mice (males, purchased from Jackson Laboratories) were kept under cycles of artificial light (day) for 12 hours and dark (night) for 12 hours by appropriately feeding a standard high-fat feed (D12079B, Research Diet). Before starting a test for each test compound, 100 μL of blood were collected from the caudal vein of each animal to measure the total cholesterol concentration in plasma using a commercially available kit (Determiner TC 555, Kyowa Medex). […] The test compound was orally administered daily at the start of the artificial light cycle of each day.
Blood was collected at the start of the artificial light cycle on day 14 of administration of the test compound to measure the total plasma cholesterol. The total plasma cholesterol before administration of the test compound (on day 0) was taken as 100%, and the percent increase in total plasma cholesterol on day 14 after administration of the test compound started was calculated.

ACAT 2 = molecular target: T1, ACAT 2 (Mus musculus, UniProt O88908); test: ACAT-inhibiting activity, mouse liver microsome membrane fraction, [14C]oleoyl-CoA; assay type: biochemical; settings: for IC50: mouse liver microsome, 5 minutes at 37° C.; for Specific activity: (inhibitory activity of test compound)/(inhibitory activity of pyripyropene A): relative to pyripyropene A
T1 construct: The source of ACAT 2 enzyme used was a membrane fraction derived from mouse liver microsome; from tissue; host or cells: mouse liver (microsome fraction)
T1 sequence (O88908 1-525): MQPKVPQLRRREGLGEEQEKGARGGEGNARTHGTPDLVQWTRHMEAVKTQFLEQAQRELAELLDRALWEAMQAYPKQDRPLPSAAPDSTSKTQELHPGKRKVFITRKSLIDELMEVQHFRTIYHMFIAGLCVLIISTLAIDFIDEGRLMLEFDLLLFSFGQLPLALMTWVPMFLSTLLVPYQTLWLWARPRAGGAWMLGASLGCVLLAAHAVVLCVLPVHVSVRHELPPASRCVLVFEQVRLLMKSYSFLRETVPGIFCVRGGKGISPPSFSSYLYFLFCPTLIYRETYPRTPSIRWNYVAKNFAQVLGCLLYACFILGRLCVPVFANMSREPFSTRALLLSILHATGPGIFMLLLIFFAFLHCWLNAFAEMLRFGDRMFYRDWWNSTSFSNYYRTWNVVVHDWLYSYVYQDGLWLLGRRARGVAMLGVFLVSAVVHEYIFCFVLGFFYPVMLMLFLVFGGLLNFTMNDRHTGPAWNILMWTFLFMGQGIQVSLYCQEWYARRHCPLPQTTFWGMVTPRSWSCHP
Method in brief: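 Enzyme source: mouse liver microsomal membrane fraction (100000×g pellet) at 5 mg/ml protein in 50 mM Tris-HCl pH 7.8, 1 mM EDTA, 1 mM PMSF; substrate [14C]oleoyl-CoA. Chloroform-extracted lipids resolved by silica TLC in hexane/diethyl ether/acetic acid (70:30:1).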

SMILES	total plasma cholesterol at day 14 (% of day 0) ([1]; 1 mg/kg oral daily) [%]	total plasma cholesterol at day 14 (% of day 0) ([1]; 10 mg/kg oral daily) [%]	total plasma cholesterol at day 14 (% of day 0) ([1]; 50 mg/kg oral daily) [%]	suppression of the increase in total plasma cholesterol compared with pyripyropene A [1]	IC50 (ACAT 2) [nM]	Specific activity: (inhibitory activity of test compound)/(inhibitory activity of pyripyropene A) (ACAT 2)
CC(=O)OCC1(C)C2C[C@H](OC(=O)c3ccc(C#N)cc3)[C@@]3(C)Oc4cc(-c5cccnc5)oc(=O)c4[C@H](O)C3[C@@]2(C)CC[C@@H]1OC(C)=O (stereo partly drawn) [PRD 017, 7-p-cyanobenzoyl-7-deacetylpyripyropene A]	161.6	149.7	132.5	to a greater degree than did pyripyropene A	10 to 100	+++ (50 > specific activity > 10)
CC12COC(c3ccccc3)O[C@H]1CC[C@@]1(C)C2C[C@H](OC(=O)c2ccc(C#N)cc2)[C@@]2(C)Oc3cc(-c4cccnc4)oc(=O)c3[C@H](O)C12 (stereo partly drawn) [PRD 041, 1,11-O-benzylidene-7-O-p-cyanobenzoyl-1,7,11-trideacetylpyripyropene A]	102.4	88.2	101.1	to a greater degree than did pyripyropene A	10 to 100	+ (5 > specific activity > 1)
CC(C)C(=O)OCC1(C)C2C[C@H](OC(=O)c3ccc(C#N)cc3)[C@@]3(C)Oc4cc(-c5cccnc5)oc(=O)c4[C@H](O)C3[C@@]2(C)CC[C@@H]1OC(=O)C(C)C (stereo partly drawn) [PRD 056, 7-O-p-cyanobenzoyl-1,11-di-(O-isobutyryl)-1,7,11-trideacetylpyripyropene A]	148.0	114.8	86.1	to a greater degree than did pyripyropene A	10 to 100	+++ (50 > specific activity > 10)
